In patent EP1096933B1, “USE OF AN INHIBITOR OF CYTOCHROME P450 OPTIONALLY COMBINED WITH AN ANTIFUNGAL AGENT FOR TREATING MYCOSES” (priority 1998, dated 2000):
Read-outs that look alike come from different tables or passages of the source.

Columns and labels:
Experiment in all cases: growth of strains streaked on Sabouraud agar containing the products
Format in all cases: cell-based
Trichophyton soudanense = details: Tric.Soudanese; for activity at 10 µg/mL: read-out: % DE CROISSANCE; for inhibition at 2 µg/mL / inhibition at 10 µg/mL / inhibition at 20 µg/mL / inhibition at 50 µg/mL: read-out: inhibition de la croissance
Method: (§1) Ces molécules ont été incorporées dans un milieu gélosé dit de Sabouraud (peptone 10g/l, glucose 10 g/l, gomme agar 15 g/l).
(§2) Des souches de diverses espèces de champignons ont été ensemencées par stries par la méthode de Stires.
(§3) Le pourcentage de croissance a été mesuré au cours du temps, pour des périodes allant jusqu'à 21 jours, pour certaines des souches testées.
(§4) Les quantités de pipéronyl butoxyde, et de cyclopyroxolamine utilisées sont identiques et sont de 10 ou 20 µg/ml dans le cas de l'association entre ces deux composés.
(§5) Dans le cas de l'association entre le pipéronyl butoxyde et l'éconazole, elles sont respectivement de 10 ou 20 µg/ml de pipéronyl butoxyde et de 1 µg/ml d'éconazole.
(§6) Des souches appartenant aux espèces suivantes ont été testées: Microsporum canis, Trichophyton rubrum, Trichophyton interdigitale, Trichophyton mentagrophytes, Microsporum persicolor, Epidermophyton floccosum, Trichophyton violaceum et Trichophyton soudanense.
(§7) L'activité du pipéronyl butoxyde seul a été testée à diverses concentrations, comme indiqué dans le tableau 1 sur le milieu de Sabouraud, dépourvu de tout autre fongicide.

Trichophyton rubrum = details: Tric.Rubrum; for activity at 20 µg/mL: read-out: % DE CROISSANCE; for inhibition at 2 µg/mL / inhibition at 10 µg/mL / inhibition at 20 µg/mL / inhibition at 50 µg/mL: read-out: inhibition de la croissance
Method: as §1, §2, §3, §4, §5, §6, §7

[1] = system: Trichophyton interdigitale; details: Tric.Interdigitale; for activity at 20 µg/mL: read-out: % DE CROISSANCE; for inhibition at 2 µg/mL / inhibition at 10 µg/mL / inhibition at 20 µg/mL / inhibition at 50 µg/mL: read-out: inhibition de la croissance
Method: as §1, §2, §3, §4, §5, §6, §7

Microsporum canis = details: for activity at 20 µg/mL: read-out: % DE CROISSANCE
Method: as §1, §2, §3, §4, §5, §6, §7

[2] = 144 h, J6, 20µg/ml each product
[3] = 240 h, J10, 20µg/ml each product
[4] = 336 h, J14, 20µg/ml each product

CCCCOCCOCCOCc1cc2c(cc1CCC)OCO2 [Piperonyl., pipéronyl butoxyde]
5%: activity at 20 µg/mL ([1]; 96 h, J4, 20µg/ml each product) | inhibition at 20 µg/mL ([1]; J+4, 20 µg/ml) | activity at 20 µg/mL (Microsporum canis; 144 h)
100%: inhibition at 2 µg/mL (Trichophyton soudanense; J+14, 2 µg/ml) | inhibition at 2 µg/mL (Trichophyton rubrum; J+14, 2 µg/ml) | inhibition at 2 µg/mL ([1]; J+14, 2 µg/ml)
80%: inhibition at 2 µg/mL (Trichophyton soudanense; J+10, 2 µg/ml) | inhibition at 2 µg/mL ([1]; J+10, 2 µg/ml) | inhibition at 10 µg/mL ([1]; J+14, 10 µg/ml)
30%: inhibition at 2 µg/mL ([1]; J+4, 2 µg/ml)
20%: activity at 20 µg/mL (Trichophyton rubrum; [2]) | inhibition at 2 µg/mL (Microsporum canis; Micro. Canis, J+4, 2 µg/ml, read-out: inhibition de la croissance)
60%: inhibition at 10 µg/mL (Trichophyton rubrum; J+10, 10 µg/ml) | activity at 20 µg/mL [1, 3] | inhibition at 20 µg/mL ([1]; J+10, 20 µg/ml) | activity at 20 µg/mL (Microsporum canis; 336 h)
50%: activity at 20 µg/mL (Trichophyton rubrum; [4]) | inhibition at 20 µg/mL (Trichophyton rubrum; J+14, 20 µg/ml)
45%: activity at 20 µg/mL (Microsporum canis; 240 h)
15%: inhibition at 2 µg/mL (Trichophyton rubrum; J+4, 2 µg/ml) | inhibition at 10 µg/mL ([1]; J+4, 10 µg/ml) | inhibition at 10 µg/mL (Microsporum canis; Micro. Canis, J+4, 10 µg/ml, read-out: inhibition de la croissance)
90%: inhibition at 2 µg/mL (Trichophyton rubrum; J+10, 2 µg/ml)
10%: activity at 10 µg/mL (Trichophyton soudanense; 144 h, J6, 10µg/ml each product) | activity at 10 µg/mL (Trichophyton soudanense; 240 h, J10, 10µg/ml each product) | inhibition at 10 µg/mL (Trichophyton soudanense; J+10, 10 µg/ml) | inhibition at 10 µg/mL (Trichophyton rubrum; J+4, 10 µg/ml)
35%: activity at 20 µg/mL (Trichophyton rubrum; [3]) | inhibition at 20 µg/mL (Trichophyton rubrum; J+10, 20 µg/ml)
25%: activity at 10 µg/mL (Trichophyton soudanense; 336 h, J14, 10µg/ml each product) | inhibition at 2 µg/mL (Trichophyton soudanense; J+4, 2 µg/ml) | inhibition at 10 µg/mL (Trichophyton soudanense; J+14, 10 µg/ml) | activity at 20 µg/mL [1, 2]
70%: activity at 20 µg/mL [1, 4] | inhibition at 10 µg/mL ([1]; J+10, 10 µg/ml) | inhibition at 20 µg/mL ([1]; J+14, 20 µg/ml)
0%: activity at 10 µg/mL (Trichophyton soudanense; 0 h, J0, 10µg/ml each product) | activity at 10 µg/mL (Trichophyton soudanense; 96 h, J4, 10µg/ml each product) | inhibition at 10 µg/mL (Trichophyton soudanense; J+4, 10 µg/ml) | inhibition at 20 µg/mL (Trichophyton soudanense; J+4, 20 µg/ml) | inhibition at 50 µg/mL (Trichophyton soudanense; J+4, 50 µg/ml) | inhibition at 20 µg/mL (Trichophyton soudanense; J+10, 20 µg/ml) | inhibition at 50 µg/mL (Trichophyton soudanense; J+10, 50 µg/ml) | inhibition at 20 µg/mL (Trichophyton soudanense; J+14, 20 µg/ml) | inhibition at 50 µg/mL (Trichophyton soudanense; J+14, 50 µg/ml) | activity at 20 µg/mL (Trichophyton rubrum; 0 h, J0, 20µg/ml each product) | activity at 20 µg/mL (Trichophyton rubrum; 96 h, J4, 20µg/ml each product) | inhibition at 20 µg/mL (Trichophyton rubrum; J+4, 20 µg/ml) | inhibition at 50 µg/mL (Trichophyton rubrum; J+4, 50 µg/ml) | inhibition at 50 µg/mL (Trichophyton rubrum; J+10, 50 µg/ml) | inhibition at 50 µg/mL (Trichophyton rubrum; J+14, 50 µg/ml) | activity at 20 µg/mL ([1]; 0 h, J0, 20µg/ml each product) | inhibition at 50 µg/mL ([1]; J+4, 50 µg/ml) | inhibition at 50 µg/mL ([1]; J+10, 50 µg/ml) | inhibition at 50 µg/mL ([1]; J+14, 50 µg/ml) | activity at 20 µg/mL (Microsporum canis; 0 h) | activity at 20 µg/mL (Microsporum canis; 96 h) | inhibition at 20 µg/mL (Microsporum canis; Micro. Canis, J+4, 20 µg/ml, read-out: inhibition de la croissance)
75%: inhibition at 10 µg/mL (Trichophyton rubrum; J+14, 10 µg/ml)
